From US20100285990A1, “NEURITE OUTGROWTH AS AN ASSAY FOR MEMORY ENHANCING COMPOUNDS” (priority 2007, published 2010)

Columns and labels:
[1] = tested on: NS1 cells; experiment: Neurite outgrowth assay in Neuroscreen 1 (NS1) cells; format: cell-based; details: for number of branch points: FIG. 5B
Method: The effect of CREB enhancers on neurite outgrowth in NS1 cells was assayed. On-target siRNAs (Dharmacon Inc., Lafayette, USA) were used for in vitro testing (neurite outgrowth in NS 1 cells). Neuroscreen 1 (NS1) cells (Cellomics Inc.) were transfected according to the manufactures specification using Dharmafect 3.
Neuroscreen 1 (NS1) cells were cultured on collagen type I coated 75 cm^2 plastic flasks (Biocoat, Becton Dickinson) in a humidified incubator at 37° C. in 5% CO2. Cells were cultured in RPMI complete cell culture medium (Cambrex) supplemented with 10% heat-inactivated horse serum (Invitrogen), 5% heat-inactivated fetal bovine serum (Cellgro), and 2 mM L-glutamine (Cambrex). For expansion, the cells were trypsinized and split at 80% confluence. The cell culture media was changed every 2 to 3 days.
NS1 cells were harvested as if they were being passaged and then counted using a Coulter counter (Becton Dickinson Coulter Z1). Cells were seeded in 96-well collagen I coated plates at a density of 2000 cells per well in volume of 200 μl. RPMI media was supplemented with 200 ng/ml nerve growth factor (NGFβ, Sigma). NS 1 cells were incubated for 72 hours to allow differentiation to a neuronal phenotype. NGFβ was then diluted to 50 ng/ml and the cells were treated with siRNA or compound at the indicated doses, respectively.
Neurite outgrowth assays were performed using the Cellomics Arrayscan II Vti HCS scanner. Cells were stained using the HitKit™ HCS reagent kit (Cellomics) according to the manufactures specifications. The assay is based on immunoflourescence using an antibody that has been validated to specifically label both neurites and neuronal cell bodies. Briefly, cells were fixed in 3.7% formaldehyde and nuclei stained with Hoechst dye. Cells were then washed in neurite outgrowth buffer and neurites stained with Cellomics' proprietary primary antibody for neurite outgrowth high content screening. After 1 hour of incubation with the primary antibody, the cells were washed again and then incubated with fluorescently labeled secondary antibody solution for 1 hour. Antibody-stained 96-well plates were store at 4° C. in the dark until scanning. Plates were scanned using Cellomics ArrayScan II Vti HCS scanner. The neurite outgrowth assay uses two channels to carry out the scan. Channel 1 detects the Hoechst Dye and is used by the software to identify cells and for automated focusing. Channel 2 detects the FITC fluorescence of the secondary antibody and is used by the software to calculate all data generated in reference to neurites.

[2] = tested on: mice; experiment: Contextual fear conditioning (freezing behavior) for long term memory; format: in vivo, mouse
Method: Young-adult (10-12 weeks old) C57BL16 male mice (Taconic, N.Y.) were used for biochemistry and behavioral experiments. Upon arrival, mice were group-housed (5 mice) in standard laboratory cages and maintained on a 12:12 hours light-dark cycle. The experiments were always conducted during the light phase of the cycle. The day before the initiation of the experiment, mice were single housed in individual cages and maintained so till the end of the experiment. With the exception of training and testing times, the mice had ad lib access to food and water.
To assess contextual memory, a standardized contextual fear conditioning task (Bourtchuladze, et al., Cell 79(1):59-68 (1994)) was used. On the training day, the mouse was placed into the conditioning chamber (Med Associates, Inc., VA) for 2 minutes before the onset of the unconditioned stimulus (US), a 0.5 mA foot shock of 2 seconds duration. The US was repeated with a 1 minute inter-trial interval between shocks. After the last training trial, the mice were left in the conditioning chamber for another 30 sec and were then placed back in their home cage. Memory retention was tested one or four days after training. Results were identical for both time points. The mouse was placed into the same training chamber and conditioning was assessed by scoring freezing behavior, as defined by the complete lack of movement. Total testing time lasted 3 minutes. The proceeding of each experiment was filmed. After each experimental subject, the experimental apparatus was thoroughly cleaned with 75% ethanol, water, dried, and ventilated.
Mice were trained with one, two, five or ten trials of contextual conditioning. Four days later contextual memory was tested by scoring freezing behavior. […] Next, mice received weak training (two trials) to induce submaximal memory, or strong training (five trials) to induce maximum memory. Directly after training, the CREB enhancer Rolipram or vehicle was injected into the hippocampus. Contextual memory was tested by scoring freezing behavior four days after training.
For intrahippocampal Rolipram injection or Gpr12 siRNA treatment, mice were anesthetized with 20 mg/kg Avertin and implanted with a 33-gauge guide cannula bilateraly into the dorsal hippocampus (coordinates: A=−1.8 mm, L=+/−1.5 mm to a depth of 1.2 mm) (Franklin and Paxinos, 1997). Five to nine days after recovery from surgery, animals were injected with drug or vehicle control. […]
To assess contextual memory, a standardized contextual fear conditioning task (Bourtchuladze, et al, Cell 79(1):59-68 (1994)) was used. […] The mouse was placed into the same training chamber and conditioning was assessed by scoring freezing behavior, as defined by the complete lack of movement. […]

[3] = tested on: mouse hippocampal neurons; experiment: Neurite outgrowth assay in mouse hippocampal neurons; format: cell-based
Method: Mouse hippocampal neurons were cultured for three days and then treated with HT-2175 or Rolipram for 24 hours. […] MEAN+/−SEM of eight experimental replicate wells (each measuring neurite length of at least 100 neurons) is shown. […] Mice were treated with HT-2175 or vehicle and then trained in contextual conditioning.
Cryo-preserved NS 1 neurons were purchased from the University of Ottawa. Neurons were cultured on poly-D-lysine coated 96 well plates in serum free Neurobasal medium supplemented with 2% B27, 500 μM L-glutamine, and 1 mM pyruvate. Plating density was 20,000 neurons per well. For neurite outgrowth assays, neurons were cultured for 2-3 days and then treated for 24 hours with Rolipram, HT-2175, or HT-2157, respectively.

[4] = tested on: CREB pathway; experiment: CRE-luciferase reporter assay of CREB activation in Neuro2A cells; format: cell-based; details: p<0.001
Text: CREB activity assays were constructed. Neuro2A cells were transfected with a CREB expressing or control vectors using standard molecular biology techniques. CRE-luciferase activity was monitored in the presence or absence of Forskolin ([…]). CREB over-expression led to an increase in the activation of the CRE-reporter construct (n=3 per group, * indicates p<0.05). CRE-luciferase reporter thus measures activation of the CREB pathway. In FIG. 1B, the effect of Rolipram on CREB-activation is shown. Neuro2A cells were treated with the PDE4 inhibitor Rolipram and CREB activation monitored via CRE-liciferase activation.
The effect of Rolipram on CREB-activation was assayed in the presence of 0.5 μM Forskolin. Neuro2A cells were treated with the PDE4 inhibitor Rolipram and CREB activation monitored via CRE-liciferase activation in the presence of 0.5 μM Forskolin.

[5] = siRNA treatment 48 hours, compared to vehicle alone

## O=C1C(=Nc2cccc(C(F)(F)F)c2)c2ccccc2N1c1ccccc1 [HT-2157]
[1]; FIG. 6A
  total neurite length per cell: facilitates neurite outgrowth
[1]; FIG. 6B
  number of branch points per dendrite: facilitates neurite outgrowth
[2]; contextual fear conditioning with two trials, FIG. 6D
  contextual memory: dose dependently facilitates contextual memory
[3]; mouse hippocampal neurons, FIG. 6C
  number of branch points: dose-dependently facilitates neurite outgrowth

## COc1ccc(C2CNC(=O)C2)cc1OC1CCCC1 (centres unmarked) [Rolipram]
[1]; increasing doses in the presence of 5 μM Forskolin
  neurite branch points: dose dependently increase neurite outgrowth
[1]; increasing doses in the presence of 5 μM Forskolin, FIG. 3B
  neurite length: dose dependently increase neurite outgrowth
[2]; strong training (five trials), injected into the hippocampus directly after training, tested four days after training
  contextual memory (freezing behavior): has no effect on maximal memory
[2]; weak training (two trials), injected into the hippocampus directly after training, tested four days after training
  contextual memory (freezing behavior): dose-dependently facilitates submaximal contextual memory
[3]; neurons cultured three days, treated 24 hours, FIG. 4A
  branch points per neurite: facilitate neurite outgrowth
[4]; FIG. 1B, n=8 per group
  CREB activation monitored via CRE-luciferase activation: activates CREB-dependent transcription
[4]; in the presence of 0.5 μM Forskolin
  CREB activation monitored via CRE-luciferase activation: activates CREB-dependent transcription

## Gpr12 siRNA: siRNA against Gpr12; sense GAGGCACGCCCAUC AGAUAUU (SEQ ID NO: 1), anti-sense UAUCUGAUGGGCGUGCCUCUU (SEQ ID NO: 2) (sense GAGGCACGCCCAUCAGAUAUU; chemically modified siSTABLE siRNA, pattern not given here)
[1]; siRNA treatment 48 hours
  number of branch points: significantly enhanced neurite outgrowth
[1]; [5]
  neurite length: significantly enhanced neurite outgrowth
[2]; siRNA injected repeatedly into hippocampus, weak training (two trials), tested 24 hours later, FIG. 5C
  contextual memory (freezing behavior): facilitates contextual memory

## non-targeting control siRNA: 21mer non-targeting siRNA used as control; SEQ ID NO: 3 and 4 (chain 1 UAGCGACUAAACACAUCAAUU; chain 2 UUGAUGUGUUUAGUCGCUAUU; chemically modified siSTABLE siRNA, pattern not given here)
[1]; siRNA treatment 48 hours
  number of branch points: had no effect on branch points
[1]; [5]
  neurite length: had no effect on neurite outgrowth
[1]; siRNA treatment 48 hours, compared to vehicle alone, listed as Non-targeting control siRNA
  neurite length: had no effect on neurite length
